Data taken from patent US20170121315A1, “HETEROBICYCLICALLY SUBSTITUTED 4-OXOBUTANE ACID DERIVATIVES AND USE THEREOF” (priority 2014, published 2017).

Assays:
Assay type in all cases: biochemical
MMP-7 = biological target: T1, MMP-7 (Homo sapiens, UniProt P09237); test: In vitro MMP-7 inhibition test; conditions: human MMP-7
T1 construct: purchased R&D Systems 907-MP
T1 sequence (P09237 95-267): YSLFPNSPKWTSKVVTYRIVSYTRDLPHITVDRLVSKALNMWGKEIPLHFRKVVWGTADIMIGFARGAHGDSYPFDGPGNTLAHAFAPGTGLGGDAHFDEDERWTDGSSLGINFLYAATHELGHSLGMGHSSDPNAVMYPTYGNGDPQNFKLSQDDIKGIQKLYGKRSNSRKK
Source text: (§1) The MMP-mediated amidolytic cleavage of a suitable peptide substrate leads to an increase in fluorescent light here too. The signal intensity of the fluorescent light is directly proportional to the enzyme activity. The active concentration of a test compound at which half the enzyme is inhibited (50% signal intensity of the fluorescent light) is reported as the IC50 value.
(§2) Recombinant MMP-7 (from R&D Systems, 907-MP) is chemically activated in accordance with the manufacturer's instructions using APMA. 1 μl of the test compound to be analysed (as a solution in DMSO, suitable concentrations e.g. 1 nM to 30 μM) is pipetted into 24 μl of activated enzyme (final concentration e.g. 0.5 nM) in reaction buffer (50 mM Tris/HCl pH 7.5, 10 mM CaCl2, 150 mM NaCl, 0.05% Brij®-35) in a white 384-hole microtiter plate (MTP). The enzymatic reaction is started by adding the intramolecularly quenched Mca-Pro-Leu-Gly-Leu-Dpa(Dnp)-Ala-Arg-NH2 substrate (final concentration e.g. 10 μM; R&D Systems, ES-001), so as to result in a total test volume of 50 μl. The course of the MMP-7 reaction is measured by measuring the fluorescence intensity (excitation 320 nm, emission 410 nm) over a suitable period of time (e.g. over 120 min at a temperature of 32° C.).

MMP-9 = biological target: T2, MMP-9 (Homo sapiens, UniProt P14780); test: In vitro MMP-9 inhibition test; conditions: human MMP-9
T2 construct: purchased R&D Systems 911-MP
Source text: as §1
as §2, with “MMP-9 (R&D” for “MMP-7 (from R&D”, “911-MP)” for “907-MP)”, “0.1” for “0.5”, “MMP-9” for “MMP-7”

MMP-8 = biological target: T3, MMP-8 (Homo sapiens, UniProt P22894); test: In vitro MMP-8 inhibition test; conditions: human MMP-8
T3 construct: purchased R&D Systems 908-MP
Source text: as §1
as §2, with “MMP-8 (R&D” for “MMP-7 (from R&D”, “908-MP)” for “907-MP)”, “MMP-8” for “MMP-7”

T2 sequence (P14780 107-707 limits assumed): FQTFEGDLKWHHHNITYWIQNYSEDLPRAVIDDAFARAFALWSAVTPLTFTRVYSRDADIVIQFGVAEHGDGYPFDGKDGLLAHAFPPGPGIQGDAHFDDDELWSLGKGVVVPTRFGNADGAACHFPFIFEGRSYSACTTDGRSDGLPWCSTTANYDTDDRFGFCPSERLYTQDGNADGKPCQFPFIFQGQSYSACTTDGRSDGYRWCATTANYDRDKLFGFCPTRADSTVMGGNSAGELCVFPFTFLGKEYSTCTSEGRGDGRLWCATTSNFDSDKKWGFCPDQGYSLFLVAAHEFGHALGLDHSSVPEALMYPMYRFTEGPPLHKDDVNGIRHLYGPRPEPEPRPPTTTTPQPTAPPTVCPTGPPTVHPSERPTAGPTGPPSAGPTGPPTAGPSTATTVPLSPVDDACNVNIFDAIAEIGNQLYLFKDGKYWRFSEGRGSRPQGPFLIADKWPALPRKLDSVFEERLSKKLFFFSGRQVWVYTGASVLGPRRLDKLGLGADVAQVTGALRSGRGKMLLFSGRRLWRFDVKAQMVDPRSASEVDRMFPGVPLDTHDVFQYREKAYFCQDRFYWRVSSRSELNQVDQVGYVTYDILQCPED
T3 sequence (P22894 101-467): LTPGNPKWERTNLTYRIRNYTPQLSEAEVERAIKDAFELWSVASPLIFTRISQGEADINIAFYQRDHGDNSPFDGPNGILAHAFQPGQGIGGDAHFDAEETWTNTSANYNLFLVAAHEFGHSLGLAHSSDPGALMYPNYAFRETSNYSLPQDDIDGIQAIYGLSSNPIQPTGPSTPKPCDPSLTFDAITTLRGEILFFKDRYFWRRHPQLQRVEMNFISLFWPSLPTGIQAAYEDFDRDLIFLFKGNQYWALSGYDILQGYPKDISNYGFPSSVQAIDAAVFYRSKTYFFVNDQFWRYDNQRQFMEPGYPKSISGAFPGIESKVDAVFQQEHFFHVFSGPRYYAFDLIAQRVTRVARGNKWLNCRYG

Row | IC50 (MMP-7) [µM] | IC50 (MMP-9) [µM] | IC50 (MMP-8) [µM] | Compound
1 | > 40 | 24 | 14 | O=C(CC(CCn1nnc2ccccc2c1=O)C(=O)O)c1cc2cc(OCCc3ccc(Cl)cc3)ccc2o1 (racemic) [Example 2, (+/−)-4-{5-[2-(4-Chlorophenyl)ethoxy]-1-benzofur-2-yl}-4-oxo-2-[2-(4-oxo-1,2,3-benzotriazin-3(4H)-yl)ethyl]butanoic acid]
2 | > 40 | 3.4 | 3.9 | O=C(CC(CCn1nnc2ccccc2c1=O)C(=O)O)c1cc2cc(OCCC3CCOCC3)ccc2o1 (racemic) [Example 6, (+/−)-4-Oxo-2-[2-(4-oxo-1,2,3-benzotriazin-3(4H)-yl)ethyl]-4-{5-[2-(tetrahydro-2H-pyran-4-yl)ethoxy]-1-benzofur-2-yl}butanoic acid]
3 | > 40 | 5 | 22 | O=C(CC(CCn1nnc2ccccc2c1=O)C(=O)O)c1cc2cc(OCCC3CCCC3)ccc2o1 (racemic) [Example 7, (+/−)-4-[5-(2-Cyclopentylethoxy)-1-benzofur-2-yl]-4-oxo-2-[2-(4-oxo-1,2,3-benzotriazin-3(4H)-yl)ethyl]butanoic acid]
4 | > 40 | 13 | 30 | O=C(CC(CCn1nnc2ccccc2c1=O)C(=O)O)c1cc2cc(OCC3CCCCC3)ccc2o1 (racemic) [Example 8, (+/−)-4-[5-(Cyclohexylmethoxy)-1-benzofur-2-yl]-4-oxo-2-[2-(4-oxo-1,2,3-benzotriazin-3(4H)-yl)ethyl]butanoic acid]
5 | > 40 | 9.9 | 28 | O=C(CC(CCn1nnc2ccccc2c1=O)C(=O)O)c1cc2cc(OCc3ccc(C(F)(F)F)cc3)ccc2o1 (racemic) [Example 44, (+/−)-4-Oxo-2-[2-(4-oxo-1,2,3-benzotriazin-3(4H)-yl)ethyl]-4-(5-{[4-(trifluoromethyl)benzyl]oxy}-1-benzofur-2-yl)butanoic acid]
6 | > 40 | 0.45 | 3.3 | O=C(CC(CCn1nnc2ccccc2c1=O)C(=O)O)c1coc2cc(OCCC3CCCC3)ccc12 (racemic) [Example 75, (+/−)-4-[6-(2-Cyclopentylethoxy)-1-benzofur-3-yl]-4-oxo-2-[2-(4-oxo-1,2,3-benzotriazin-3(4H)-yl)ethyl]butanoic acid]
7 | > 40 | 0.23 | 6.7 | CCCCCOc1ccc2c(C(=O)CC(CCn3nnc4ccccc4c3=O)C(=O)O)coc2c1 (racemic) [Example 89, (+/−)-4-Oxo-2-[2-(4-oxo-1,2,3-benzotriazin-3(4H)-yl)ethyl]-4-[6-(pentyloxy)-1-benzofur-3-yl]butanoic acid]
8 | 4.1 | 1.1 | 0.46 | O=C(CC(CCn1nnc2ccccc2c1=O)C(=O)O)c1cc2ccc(OCC3CC3)cc2s1 (racemic) [Example 111, (+/−)-4-[6-(Cyclopropylmethoxy)-1-benzothiophen-2-yl]-4-oxo-2-[2-(4-oxo-1,2,3-benzotriazin-3(4H)-yl)ethyl]butanoic acid]

Second part, the molecule before the results:

Row | Compound | IC50 (MMP-7) [µM] | IC50 (MMP-9) [µM] | IC50 (MMP-8) [µM]
9 | O=C(CC(CCn1nnc2ccccc2c1=O)C(=O)O)c1cc2cc(OCCc3ccccc3Cl)ccc2o1 (racemic) [Example 1, (+/−)-4-{5-[2-(2-Chlorophenyl)ethoxy]-1-benzofur-2-yl}-4-oxo-2-[2-(4-oxo-1,2,3-benzotriazin-3(4H)-yl)ethyl]butanoic acid] | > 40 | > 40 | > 40
10 | CCCCCCCOc1ccc2oc(C(=O)CC(CCn3nnc4ccccc4c3=O)C(=O)O)cc2c1 (racemic) [Example 31, (+/−)-4-[5-(Heptyloxy)-1-benzofur-2-yl]-4-oxo-2-[2-(4-oxo-1,2,3-benzotriazin-3(4H)-yl)ethyl]butanoic acid] | > 40 | 9.7 | 35
11 | O=C(CC(CCn1nnc2ccccc2c1=O)C(=O)O)c1cc2cc(OCCCc3ccccc3)ccc2o1 (racemic) [Example 37, (+/−)-4-Oxo-2-[2-(4-oxo-1,2,3-benzotriazin-3(4H)-yl)ethyl]-4-[5-(3-phenylpropoxy)-1-benzofur-2-yl]butanoic acid] | > 40 | 17 | 12
12 | O=C(CC(CCn1nnc2ccccc2c1=O)C(=O)O)c1cc2cc(OCc3cccc(Cl)c3)ccc2o1 (racemic) [Example 50, (+/−)-4-{5-[(3-Chlorobenzyl)oxy]-1-benzofur-2-yl}-4-oxo-2-[2-(4-oxo-1,2,3-benzotriazin-3(4H)-yl)ethyl]butanoic acid] | > 40 | 26 | 36
13 | Cc1cccc(COc2ccc3oc(C(=O)CC(CCn4nnc5ccccc5c4=O)C(=O)O)cc3c2)c1 (racemic) [Example 51, (+/−)-4-{5-[(3-Methylbenzyl)oxy]-1-benzofur-2-yl}-4-oxo-2-[2-(4-oxo-1,2,3-benzotriazin-3(4H)-yl)ethyl]butanoic acid] | 35 | 30 | 34
14 | CCCOc1ccc2cc(C(=O)CC(CCn3nnc4ccccc4c3=O)C(=O)O)oc2c1 (racemic) [Example 58, (+/−)-4-Oxo-2-[2-(4-oxo-1,2,3-benzotriazin-3(4H)-yl)ethyl]-4-(6-propoxy-1-benzofur-2-yl)butanoic acid] | > 40 | 10 | 10
15 | O=C(CC(CCn1nnc2ccccc2c1=O)C(=O)O)c1cc2ccc(OCCCC3CCCCC3)cc2o1 (racemic) [Example 71, (+/−)-4-[6-(3-Cyclohexylpropoxy)-1-benzofur-2-yl]-4-oxo-2-[2-(4-oxo-1,2,3-benzotriazin-3(4H)-yl)ethyl]butanoic acid] | > 40 | > 40 | > 40
16 | O=C(CC(CCn1nnc2ccccc2c1=O)C(=O)O)c1coc2cc(OCCC3CCOCC3)ccc12 (racemic) [Example 74, (+/−)-4-Oxo-2-[2-(4-oxo-1,2,3-benzotriazin-3(4H)-yl)ethyl]-4-{6-[2-(tetrahydro-2H-pyran-4-yl)ethoxy]-1-benzofur-3-yl}butanoic acid] | > 40 | 0.18 | 0.37
17 | CCCCCCCOc1ccc2c(C(=O)CC(CCn3nnc4ccccc4c3=O)C(=O)O)coc2c1 (racemic) [Example 101, (+/−)-4-[6-(Heptyloxy)-1-benzofur-3-yl]-4-oxo-2-[2-(4-oxo-1,2,3-benzotriazin-3(4H)-yl)ethyl]butanoic acid] | > 40 | 0.42 | 12
18 | O=C(CC(CCn1nnc2ccccc2c1=O)C(=O)O)c1cc2ccc(OCCc3ccccc3)cc2s1 (racemic) [Example 114, (+/−)-4-Oxo-2-[2-(4-oxo-1,2,3-benzotriazin-3(4H)-yl)ethyl]-4-[6-(2-phenylethoxy)-1-benzothiophen-2-yl]butanoic acid] | 5.3 | 0.24 | 3.2
19 | CCCCCOc1ccc2cc(C(=O)CC(CCn3nnc4ccccc4c3=O)C(=O)O)sc2c1 (racemic) [Example 118, (+/−)-4-Oxo-2-[2-(4-oxo-1,2,3-benzotriazin-3(4H)-yl)ethyl]-4-[6-(pentyloxy)-1-benzothiophen-2-yl]butanoic acid] | 30 | 1.2 | 9.3
